Results as given in paper PMC10787880, “Structural and functional characterization of a new thermophilic-like OYE from Aspergillus flavus” (Applied Microbiology and Biotechnology, 2024).

Target: T1, AfOYE1 (Aspergillus flavus, UniProt B8N8Q9)
T1 construct: gene afvA; codon-optimised gene in pET28b, E. coli BL21(DE3); N-terminal His6-TEV tag, cut by TEV protease; about 43 kDa; dimer in the crystal; non-covalent FMN
Experiment: X-ray crystal structure […] Å; UV-visible spectrum of released flavin
Type: binding
Settings: non-covalent prosthetic group, active site; chloride and ethylene glycol also in site

T1 sequence (B8N8Q9 whole entry): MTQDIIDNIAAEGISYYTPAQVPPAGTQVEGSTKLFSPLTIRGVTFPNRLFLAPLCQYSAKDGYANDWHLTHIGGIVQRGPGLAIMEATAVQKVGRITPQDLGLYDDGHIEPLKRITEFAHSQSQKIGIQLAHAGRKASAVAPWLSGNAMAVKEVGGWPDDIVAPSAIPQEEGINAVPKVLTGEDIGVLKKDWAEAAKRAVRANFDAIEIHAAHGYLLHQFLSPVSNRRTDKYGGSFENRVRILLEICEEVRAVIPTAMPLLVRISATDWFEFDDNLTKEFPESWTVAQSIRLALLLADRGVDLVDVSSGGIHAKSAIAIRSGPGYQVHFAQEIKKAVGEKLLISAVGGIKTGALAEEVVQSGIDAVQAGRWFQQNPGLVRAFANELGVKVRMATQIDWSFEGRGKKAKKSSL

SMILES: Cc1cc2nc3c(=O)[nH]c(=O)nc-3n(C[C@H](O)[C@H](O)[C@H](O)COP(=O)(O)O)c2cc1C [FMN]
- X-ray crystal structure 1.55 Å; UV-visible spectrum of released flavin: On the top of the β-barrel core of each monomer encircles one FMN cofactor
